Read-outs that look alike come from different tables or passages of the source.
What was measured:
[1] = cited from earlier work
[2] = Fluorescence properties and quantum yield measurements of the BAA library; format: physicochemical; set-up: FWHM (full-width-at half max): unit not given here; conditions: anhydrous DMSO; for λmax ABS / λmax EM: polystyrene 96 well plate; for FWHM (full-width-at half max): emission; for φfl (quantum yield): relative to reference fluorophore at three concentrations
How it was run: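 Absorbance maximum, emission maximum, FWHM and quantum yield measured in anhydrous DMSO on a microplate reader. Quantum yields from integrated emission vs absorbance gradients at three concentrations against fluorescein (0.1 M NaOH; ex 470 nm), rhodamine B (ethanol; ex 525 nm) or cresyl violet (methanol; ex 570 nm), chosen by absorbance maximum.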

Compound | φfl (quantum yield) ([1]; in ethanol, reference for max absorbance between 511-595 nm) | φfl (quantum yield) ([1]; in methanol, reference for max absorbance above 595 nm) | Stokes Shift [2] | λmax ABS [2] | λmax EM [2] | FWHM (full-width-at half max) [2] | φfl (quantum yield) [2]
CCN(CC)c1ccc2c(-c3ccccc3C(=O)O)c3ccc(=[N+](CC)CC)cc-3oc2c1.[Cl-] [Rhodamine B] | 0.70 | – | – | – | – | – | –
Cresyl violet | – | 0.54 | – | – | – | – | –
COc1cc(C=CC2=[N+]3C(=Cc4ccc(C(=Cc5ccc(OCc6ccccc6C)c(OC)c5)CC(=O)O)n4[B-]3(F)F)C(C)=C2)ccc1OCc1ccccc1C [BAA-41b] | – | – | 20 nm | 582 nm | 602 nm | 47 | 0.36
CC1=CC(C=Cc2cnn(-c3ccccc3C)c2C)=[N+]2C1=Cc1ccc(C(=Cc3cnn(-c4ccccc4C)c3C)CC(=O)O)n1[B-]2(F)F [BAA-57b] | – | – | 16 nm | 575 nm | 591 nm | 38 | 0.75
CC1=CC(C=Cc2ccc(Br)cc2S(C)(=O)=O)=[N+]2C1=Cc1ccc(CCC(=O)O)n1[B-]2(F)F [BAA-33a] | – | – | 12 nm | 575 nm | 587 nm | 35 | 0.15
CC1=CC(C=Cc2ccc(-c3ccc(OC(F)(F)F)cc3)nc2)=[N+]2C1=Cc1ccc(CCC(=O)O)n1[B-]2(F)F [BAA-71a] | – | – | 9 nm | 580 nm | 589 nm | 32 | 0.19
CC1=CC(C=Cc2cccc(N3CCCC3)n2)=[N+]2C1=Cc1ccc(CCC(=O)O)n1[B-]2(F)F [BAA-38a] | – | – | 2 nm | 579 nm | 581 nm | 33 | 0.07
CC1=CC(C=Cc2ccc(-c3cccnc3)cc2)=[N+]2C1=Cc1ccc(CCC(=O)O)n1[B-]2(F)F [BAA-37a] | – | – | 10 nm | 568 nm | 578 nm | 55 | 0.54
CC1=CC(C=Cc2ccc(OC(=O)c3ccc(Cl)cc3Cl)cc2)=[N+]2C1=Cc1ccc(CCC(=O)O)n1[B-]2(F)F [BAA-42a] | – | – | 10 nm | 570 nm | 580 nm | 30 | 0.36
COc1cc(OCc2ccccc2)ccc1/C=C(/CC(=O)O)c1ccc2n1[B-](F)(F)[N+]1=C(/C=C/c3ccc(OCc4ccccc4)cc3OC)C=C(C)C1=C2 [BAA-21b] | – | – | 20 nm | 588 nm | 608 nm | 50 | 0.54
CC1=CC(C=Cc2ccc(-c3ccc(Cl)s3)nc2)=[N+]2C1=Cc1ccc(CCC(=O)O)n1[B-]2(F)F [BAA-66a] | – | – | 11 nm | 587 nm | 598 nm | 34 | 0.28
CCOc1ccc2[nH]c(=O)cc(C=CC3=[N+]4C(=Cc5ccc(CCC(=O)O)n5[B-]4(F)F)C(C)=C3)c2c1 [BAA-51a] | – | – | 13 nm | 594 nm | 607 nm | 42 | 0.06
CC1=CC(C=Cc2ccc(-c3nccs3)cc2)=[N+]2C1=Cc1ccc(CCC(=O)O)n1[B-]2(F)F [BAA-68a] | – | – | 10 nm | 585 nm | 595 nm | 30 | 0.17
COc1ccc(/C=C(/CC(=O)O)c2ccc3n2[B-](F)(F)[N+]2=C(/C=C/c4ccc(OC)c(C)c4OC)C=C(C)C2=C3)c(OC)c1C [BAA-7b] | – | – | 19 nm | 581 nm | 600 nm | 56 | 0.43
CCSc1ccc(-c2ccc(C=CC3=[N+]4C(=Cc5ccc(CCC(=O)O)n5[B-]4(F)F)C(C)=C3)cn2)cc1 [BAA-67a] | – | – | 11 nm | 587 nm | 598 nm | 61 | 0.15
CC1=CC(/C=C/c2ccc(-c3cccs3)cc2)=[N+]2C1=Cc1ccc(CCC(=O)O)n1[B-]2(F)F [BAA-19a] | – | – | 13 nm | 582 nm | 595 nm | 35 | 0.64
COc1ccc(C=O)cc1OCCOc1cc(C=CC2=[N+]3C(=Cc4ccc(C(=Cc5ccc(OC)c(OCCOc6cc(C=O)ccc6OC)c5)CC(=O)O)n4[B-]3(F)F)C(C)=C2)ccc1OC [BAA-74b] | – | – | 17 nm | 583 nm | 600 nm | 51 | 0.22
CC1=CC(/C=C/c2ccc(Oc3ccc(Cl)cc3)cc2)=[N+]2C1=Cc1ccc(/C(=C\c3ccc(Oc4ccc(Cl)cc4)cc3)CC(=O)O)n1[B-]2(F)F [BAA-27b] | – | – | 13 nm | 575 nm | 588 nm | 35 | 0.33
CC1=CC(C=Cc2ccc(OCc3ccc([N+](=O)[O-])cc3)cc2)=[N+]2C1=Cc1ccc(C(=Cc3ccc(OCc4ccc([N+](=O)[O-])cc4)cc3)CC(=O)O)n1[B-]2(F)F [BAA-78b] | – | – | 14 nm | 579 nm | 593 nm | 39 | 0.37
CC1=CC(C=Cc2ccc(OCc3ccc([N+](=O)[O-])cc3)cc2)=[N+]2C1=Cc1ccc(CCC(=O)O)n1[B-]2(F)F [BAA-78a] | – | – | 11 nm | 581 nm | 592 nm | 46 | 0.19
CC1=CC(C=Cc2c[nH]nc2-c2ccc(Cl)cc2)=[N+]2C1=Cc1ccc(CCC(=O)O)n1[B-]2(F)F [BAA-64a] | – | – | 17 nm | 576 nm | 593 nm | 37 | 0.80
CC1=CC(/C=C/c2ccccc2N2CCN(C)CC2)=[N+]2C1=Cc1ccc(CCC(=O)O)n1[B-]2(F)F [BAA-4a] | – | – | 19 nm | 581 nm | 600 nm | 56 | 0.43
COc1cc(OCc2ccccc2)ccc1/C=C/C1=[N+]2C(=Cc3ccc(CCC(=O)O)n3[B-]2(F)F)C(C)=C1 [BAA-21a] | – | – | 26 nm | 585 nm | 611 nm | 46 | 0.51
C#CCOc1c(Cl)cc(C=CC2=[N+]3C(=Cc4ccc(CCC(=O)O)n4[B-]3(F)F)C(C)=C2)cc1OC [BAA-52a] | – | – | 8 nm | 577 nm | 585 nm | 51 | 0.04
